Structures are written as SMILES. “Also recorded” adds a separate entry of the source. Where two headings read alike, the source gives them in different places.

This is an account of results in article PMC7567334 (Environmental Health Perspectives, 2020).

Series [1] has as its system Androgen receptor. The note with it: cited from earlier work.
Series [2] deals with T1, AR (Rattus norvegicus, UniProt P15207).
T1 construct: purchased Invitrogen
T1 sequence (P15207 651-902 limits assumed): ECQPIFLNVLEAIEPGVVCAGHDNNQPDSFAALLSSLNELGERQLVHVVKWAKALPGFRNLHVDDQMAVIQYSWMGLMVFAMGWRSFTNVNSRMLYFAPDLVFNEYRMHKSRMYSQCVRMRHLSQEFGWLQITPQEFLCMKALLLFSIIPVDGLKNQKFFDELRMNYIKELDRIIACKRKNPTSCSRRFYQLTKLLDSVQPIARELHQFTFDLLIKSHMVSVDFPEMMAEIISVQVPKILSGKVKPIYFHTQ
Put plainly: PolarScreen AR Competitor binding affinity assay. To be noted: in words; tested up to 10 μM.

The test system of series [3] is hERα-HeLa-9903 cells. Put plainly: Cell viability (resazurin) in hERα-HeLa-9903 cells.
The test system of series [4] is fathead minnow (Pimephales promelas). To be noted: exposure to 10 μg/L; ref Ankley et al. 2010; cited from earlier work.
Series [5] concerns the target T2, human (h)AR (Homo sapiens, UniProt P10275).
T2 sequence (P10275 1-920): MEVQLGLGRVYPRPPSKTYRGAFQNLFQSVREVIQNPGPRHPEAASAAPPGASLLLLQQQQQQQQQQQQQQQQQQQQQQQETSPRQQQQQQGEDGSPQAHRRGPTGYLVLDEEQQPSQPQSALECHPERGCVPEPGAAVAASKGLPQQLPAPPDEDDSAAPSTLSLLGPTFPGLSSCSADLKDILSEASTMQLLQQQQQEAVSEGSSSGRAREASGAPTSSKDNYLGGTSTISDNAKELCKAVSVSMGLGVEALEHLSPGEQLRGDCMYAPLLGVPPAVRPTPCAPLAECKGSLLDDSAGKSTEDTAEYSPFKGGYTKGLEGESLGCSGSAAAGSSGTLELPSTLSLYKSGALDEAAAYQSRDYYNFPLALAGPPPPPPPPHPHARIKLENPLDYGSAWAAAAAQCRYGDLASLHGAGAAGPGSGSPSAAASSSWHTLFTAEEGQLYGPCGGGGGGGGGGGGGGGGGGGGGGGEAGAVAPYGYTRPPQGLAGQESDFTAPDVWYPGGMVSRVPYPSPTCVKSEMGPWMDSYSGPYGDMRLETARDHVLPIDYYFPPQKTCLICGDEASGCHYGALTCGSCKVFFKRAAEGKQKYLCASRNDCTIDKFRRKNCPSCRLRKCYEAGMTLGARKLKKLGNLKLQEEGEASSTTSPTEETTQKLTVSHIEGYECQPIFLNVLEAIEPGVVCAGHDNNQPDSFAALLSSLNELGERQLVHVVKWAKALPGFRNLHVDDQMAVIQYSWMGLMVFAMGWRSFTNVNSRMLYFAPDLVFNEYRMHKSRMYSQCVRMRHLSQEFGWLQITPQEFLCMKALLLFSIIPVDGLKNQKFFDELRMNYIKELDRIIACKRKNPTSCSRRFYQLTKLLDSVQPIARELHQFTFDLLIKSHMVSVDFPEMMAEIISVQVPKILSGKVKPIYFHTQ
Description: AR-EcoScreen hAR transcriptional activation assay, antagonist setup (500 pM DHT). The format is cell-based. To be noted: vs 0.1% DMSO with 500 pM DHT.

In series [6] the target is T3, GR (Homo sapiens, UniProt P04150).
T3 sequence (P04150 1-777): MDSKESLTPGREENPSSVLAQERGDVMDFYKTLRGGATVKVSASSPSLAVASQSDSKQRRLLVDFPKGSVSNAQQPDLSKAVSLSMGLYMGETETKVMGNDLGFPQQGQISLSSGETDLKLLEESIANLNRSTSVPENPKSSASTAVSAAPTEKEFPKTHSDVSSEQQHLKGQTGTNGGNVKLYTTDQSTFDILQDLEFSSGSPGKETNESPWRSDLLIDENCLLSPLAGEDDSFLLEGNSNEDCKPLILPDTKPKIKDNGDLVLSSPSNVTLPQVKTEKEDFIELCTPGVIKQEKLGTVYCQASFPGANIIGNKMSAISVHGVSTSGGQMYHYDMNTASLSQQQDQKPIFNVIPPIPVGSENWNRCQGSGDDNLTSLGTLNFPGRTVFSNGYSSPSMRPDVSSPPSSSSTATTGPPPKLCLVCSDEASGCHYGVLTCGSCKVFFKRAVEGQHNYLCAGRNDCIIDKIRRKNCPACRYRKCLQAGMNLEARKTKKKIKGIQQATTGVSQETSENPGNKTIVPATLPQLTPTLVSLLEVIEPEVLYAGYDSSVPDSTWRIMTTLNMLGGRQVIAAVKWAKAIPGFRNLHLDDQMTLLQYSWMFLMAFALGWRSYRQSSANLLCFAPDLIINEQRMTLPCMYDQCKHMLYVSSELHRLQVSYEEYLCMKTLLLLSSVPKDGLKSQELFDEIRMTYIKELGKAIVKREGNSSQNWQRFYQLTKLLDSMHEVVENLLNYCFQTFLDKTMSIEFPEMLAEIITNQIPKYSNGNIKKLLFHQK
Description: MDA-kb2 GR reporter assay, agonist setup (with FLU). The format is cell-based. The arrangement: constitutively expressed high levels of functional GR and AR; host or cells: MDA-kb2. To be noted: MDA-kb2.

Series [7] concerns AroB transcription. The note with it: 0.25 μM triclocarban added to 1 nM E2; zebrafish embryos; ref Chung et al. 2011; cited from earlier work.

For `O=C(Nc1ccc(Cl)cc1)Nc1ccc(Cl)c(Cl)c1` [Triclocarban, 1-(4-Chlorophenyl)-3-(3,4-dichlorophenyl) urea], the “effect on AR” value in series [1] (HEK-2933Y cells, ref Ahn et al. 2008, Chen et al. 2008) was “Enhancer of testosterone activity in HEK-2933Y cells ([Ahn et al. 2008]; [Chen et al. 2008])”; in series [1] (MDA-kb2 cells, ref Christen et al. 2010, Kolšek et al. 2014a, Tarnow et al. 2013) it was “Enhancer of 5α-dihydrotestosterone activity in MDA-kb2 cells ([Christen et al. 2010]; [Kolšek et al. 2014a]; [Tarnow et al. 2013])”; in series [1] (T47D-ARE cells, ref Ahn et al. 2008), “Enhancer of testosterone activity in T47D-ARE cells ([Ahn et al. 2008])”. Also, in series [2], the “binding affinity assay on isolated AR, result” value is “did not show binding; also recorded: No binding; also recorded: negative”. The same molecule displayed a highest noncytotoxic concentration in series [3] (hERα-HeLa-9903) of 5 µM. For the same molecule, the “highest tested concentration as limited by precipitation and cytotoxicity” value in series [3] (hERα-HeLa-9903, ERα agonist dose-response) was 5 µM. The “effect in fathead minnow” value in series [4] is “increased masculinization”. The “higher AR RTA than spike-in control” value came to 30.7% in series [5] (1 μM) and 39.4% in series [5] (2.5 μM). Further, the GR agonist activity entry in series [6] is reported as “no GR agonist activity”. Besides, the “increase in AroB transcription” value in series [7] is recorded as 18 fold.
